From paper PMC10997755, “Discovery of a small-molecule inhibitor that traps Polθ on DNA and synergizes with PARP inhibitors” (Nature Communications, 2024)
Converted amounts (≈) assume the structure as drawn. “And” between values parts separate entries of the source, which are not always exact repeats. Equal values may be shown once.

How the values were obtained:
[1] = biological target: T1, Polθ-pol (Homo sapiens, UniProt O75417); test: Cy5 fluorescence Polθ-pol DNA synthesis (strand displacement) IC50 assay; type: biochemical; settings: Polθ-pol DNA synthesis, Cy5 fluorescence
T1 construct: purified recombinant human Polθ-pol (comprising amino acid residues 1792–2590); made in house
T1 sequence (O75417 1792-2590): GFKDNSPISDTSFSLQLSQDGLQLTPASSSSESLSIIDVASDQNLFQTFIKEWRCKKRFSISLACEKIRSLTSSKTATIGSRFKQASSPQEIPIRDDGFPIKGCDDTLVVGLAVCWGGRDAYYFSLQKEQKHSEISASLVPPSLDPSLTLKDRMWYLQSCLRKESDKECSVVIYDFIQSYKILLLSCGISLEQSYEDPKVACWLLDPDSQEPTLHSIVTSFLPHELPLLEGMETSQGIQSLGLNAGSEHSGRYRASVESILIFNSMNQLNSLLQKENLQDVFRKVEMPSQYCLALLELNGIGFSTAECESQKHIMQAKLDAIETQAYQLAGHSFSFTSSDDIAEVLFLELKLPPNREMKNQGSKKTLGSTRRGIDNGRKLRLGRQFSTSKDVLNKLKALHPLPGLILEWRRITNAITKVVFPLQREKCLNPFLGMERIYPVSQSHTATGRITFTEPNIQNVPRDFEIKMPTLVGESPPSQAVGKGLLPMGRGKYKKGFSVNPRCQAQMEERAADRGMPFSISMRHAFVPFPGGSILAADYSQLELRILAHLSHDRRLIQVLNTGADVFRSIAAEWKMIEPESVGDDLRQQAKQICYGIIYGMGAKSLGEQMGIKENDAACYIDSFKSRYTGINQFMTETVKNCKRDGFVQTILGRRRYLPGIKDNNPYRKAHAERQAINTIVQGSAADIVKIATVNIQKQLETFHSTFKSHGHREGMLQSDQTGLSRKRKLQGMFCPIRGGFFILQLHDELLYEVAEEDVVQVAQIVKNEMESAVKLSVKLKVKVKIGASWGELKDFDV
Description: The following Cy5 fluorescence assay was used to measure the ability of compounds to inhibit Polθ-pol in vitro. The fluorescent based assay was performed as follows: 60 nM of the pre-annealed primer-template containing a 5’ Cy5 fluorophore conjugated template strand (RP486-Cy5), a downstream complementary oligo conjugated with a 3’ Iowa BlackReg Dark quencher (RP343BHQRQ) and a primer strand (RP469D) was mixed with 50 uM 2'-deoxyribonucleoside triphosphates (dNTPs), 0.1 mg/mL Bovine serum albumin (BSA), 0.01% NP-40, 10% glycerol, 1 mM dithiothreitol (DTT), 10 mM MgCl2, 25 mM TrisHCl pH 7.8 in the presence of 2.5% DMSO with or without various concentrations (7-point dilution series) of Polθ-pol small-molecule inhibitors at 37 °C in a volume of 40 μL. The reactions were initiated by the addition of 5 nM of purified recombinant human Polθ-pol (comprising amino acid residues 1792–2590). The reactions were terminated by the addition of 20 mM EDTA after 18 min, and the Cy5 fluorescence intensity was measured using a CLARIOstar (BMG Labtech) plate reader. Reactions were performed in triplicate and the % inhibition at each concentration of the respective compound of Formula I was based on the mean.

[2] = Metabolic stability in liver microsomes; type: in vitro ADME; settings: read-out: t1/2 liver microsomes
[3] = Solubility (2% DMSO/PBS); type: physicochemical; settings: aqueous buffer, kinetic from dmso stock
[4] = test system: CAPAN-1 cells; test: Clonogenic assay; type: cell-based; settings: Capan-1 cells, vehicle
Description: (§1) Cells were plated on six or twelve or twenty-four well plates. In six well plate, 1000 cells/ well of BRCA2 -/-, BRCA1 -/-, PALB2 mut and 500 cells/ well of wildtype pair was plated; In twelve well plate, 600 cells/ well of BRCA2 -/-, BRCA1 -/-, PALB2 mut and 400 cells/ well of wildtype pair was plated; In twenty-four well plate, 500 cells/ well of BRCA2 -/-, BRCA1 -/-, PALB2 mut and 300 cells/ well of wildtype pair was plated. For MEFs, 300 cells per well in six-well plate were seeded. The medium was replaced every 2 days until the colonies were ready for staining in 10–12 days. For staining: Medium was removed from plates, and cells were rinsed with PBS. Fixation was carried out with—Water: Ethanol: Acetic acid (5:4:1) for 30 min followed by staining of colonies with 0.5% crystal violet in Water: Ethanol (3:2) for 2 h at room temperature. The plates were rinsed with water and left for drying overnight at room temperature. Colonies were then counted and IC50 was calculated using results from 3 or more independent experiments. Response curves are shown as mean colony formation +/- S.E.M.
(§2) Data are expressed as mean ± SEM from at least 3 independent experiments with triplicates for each condition unless stated otherwise. When conducting comparison between two groups, two-tailed unpaired t-test was used. Significance was assumed at p < 0.05. Asterisks in the figures indicate significance, ^∗p < 0.05, ^∗∗p < 0.01, ^∗∗∗p < 0.001. Combenefit® software version 2.021 was used to perform synergy analyses for drug combinations between RTx-161 and PARPi. GraphPad Prism 9 software was used to calculate IC50.

[5] = test system: VC8 cells; test: Clonogenic assay; type: cell-based, Chinese hamster; settings: VC8 cells, vehicle
Description: as §1, §2

[6] = Colony survival, ola with or without RTX-161 (source data sheet Fig. 2 b; cell line not given); type: cell-based; settings: vehicle
[7] = Colony survival, ola with or without RTX-161 (source data sheet Fig. 2 c; cell line not given); type: cell-based; settings: ola 0.125 um, RTX-161 0 uM
[8] = biological target: Fl-Polθ (UniProt O75417 1-2590); test: EcoRI endonuclease protection with unlabeled DNA trap; RTx-152, ddCTP; i+1 complex fully resistant; Endonuclease protection buffer not in the material; crystals: 0.24 M Na citrate, 18% PEG 3350, 0.1 M Bis Tris propane pH 7.5, with 1 mM MgCl2, 1 mM ddGTP, 20 mM spermine in the complex mix; settings: protein: recombinant; label: 32P (5'); 5' overhang 12 nt on template; 14 bp duplex
[9] = biological target: T2, Polθ-pol (human, UniProt O75417 1792-2590); test: EcoRI endonuclease protection with unlabeled DNA trap; RTx-161, ddCTP; cleavage suppressed >10 min; Endonuclease protection buffer not in the material; crystals: 0.24 M Na citrate, 18% PEG 3350, 0.1 M Bis Tris propane pH 7.5, with 1 mM MgCl2, 1 mM ddGTP, 20 mM spermine in the complex mix; settings: protein: recombinant; label: 32P (5'); 5' overhang 12 nt on template; 14 bp duplex
T2 sequence: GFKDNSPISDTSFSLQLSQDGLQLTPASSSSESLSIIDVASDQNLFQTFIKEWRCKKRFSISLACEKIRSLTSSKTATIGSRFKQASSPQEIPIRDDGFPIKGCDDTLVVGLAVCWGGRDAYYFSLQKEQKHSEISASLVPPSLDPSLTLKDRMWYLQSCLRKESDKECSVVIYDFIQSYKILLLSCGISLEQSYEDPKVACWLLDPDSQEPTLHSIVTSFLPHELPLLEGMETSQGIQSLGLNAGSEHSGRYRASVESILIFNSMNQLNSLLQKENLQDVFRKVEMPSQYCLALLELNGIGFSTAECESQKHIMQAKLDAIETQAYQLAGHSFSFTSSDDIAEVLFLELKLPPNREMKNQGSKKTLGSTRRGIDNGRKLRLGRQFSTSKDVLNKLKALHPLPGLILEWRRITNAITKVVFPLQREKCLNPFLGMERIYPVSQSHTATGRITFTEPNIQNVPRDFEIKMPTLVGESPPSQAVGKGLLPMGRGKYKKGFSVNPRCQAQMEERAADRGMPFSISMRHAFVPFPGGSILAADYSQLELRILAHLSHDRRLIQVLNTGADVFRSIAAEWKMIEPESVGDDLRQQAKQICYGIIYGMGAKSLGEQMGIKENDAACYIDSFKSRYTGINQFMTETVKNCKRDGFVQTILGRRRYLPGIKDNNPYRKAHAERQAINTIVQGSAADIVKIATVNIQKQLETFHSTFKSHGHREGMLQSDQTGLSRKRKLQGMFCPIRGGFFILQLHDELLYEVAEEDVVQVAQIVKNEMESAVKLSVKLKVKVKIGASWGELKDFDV

[10] = biological target: T3, PolθΔL (Polθ-pol, five loops replaced) (UniProt O75417 …, internal_change); test: X-ray crystallography, 3.24 Å; RTx-152, ddGTP, Mg2+; closed conformation; Endonuclease protection buffer not in the material; crystals: 0.24 M Na citrate, 18% PEG 3350, 0.1 M Bis Tris propane pH 7.5, with 1 mM MgCl2, 1 mM ddGTP, 20 mM spermine in the complex mix; settings: protein: recombinant; tags: 6xHis-SUMO removed with PreScission protease; 5' overhang 10 nt on template; 14 bp duplex
T3 sequence: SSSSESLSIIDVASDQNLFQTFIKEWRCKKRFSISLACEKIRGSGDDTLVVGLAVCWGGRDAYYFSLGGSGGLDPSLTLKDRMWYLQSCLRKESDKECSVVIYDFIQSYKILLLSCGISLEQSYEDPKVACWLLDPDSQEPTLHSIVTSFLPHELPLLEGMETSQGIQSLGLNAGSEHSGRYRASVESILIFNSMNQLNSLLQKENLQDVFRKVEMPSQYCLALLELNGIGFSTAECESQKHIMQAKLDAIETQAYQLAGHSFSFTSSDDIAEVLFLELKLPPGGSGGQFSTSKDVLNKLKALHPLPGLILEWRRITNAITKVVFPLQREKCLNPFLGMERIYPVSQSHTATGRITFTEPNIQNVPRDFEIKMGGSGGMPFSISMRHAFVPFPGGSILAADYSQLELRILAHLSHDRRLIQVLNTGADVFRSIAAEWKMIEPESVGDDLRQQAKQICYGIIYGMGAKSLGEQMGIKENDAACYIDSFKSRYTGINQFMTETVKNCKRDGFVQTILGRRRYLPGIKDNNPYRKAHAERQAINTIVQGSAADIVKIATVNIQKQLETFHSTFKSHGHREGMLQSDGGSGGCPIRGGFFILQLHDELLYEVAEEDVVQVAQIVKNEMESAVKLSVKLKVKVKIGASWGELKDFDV

CN(C(=O)Oc1c(Cl)cc(Cl)c2cccnc12)c1ccccc1 [MC280003]
IC50 [1]: 160 nM | half-life [2]: 1.5 min | solubility [3]: 21 µM (≈ 7.29 µg/mL)

O=C(c1cc(Cc2n[nH]c(=O)c3ccccc23)ccc1F)N1CCN(C(=O)C2CC2)CC1 [ola]
percent suvival ([4]; ola 0.041 micro M, experiment block 1 (c0-c9)): 35.7622% | percent suvival ([4]; ola 0.041 micro M, experiment block 2 (c10-c19)): 95.0051% | percent suvival ([4]; ola 0.041 micro M, experiment block 3 (c20-c29)): 99.322% | percent suvival ([4]; ola 0.123 micro M, experiment block 1 (c0-c9)): 20.5479% | percent suvival ([4]; ola 0.123 micro M, experiment block 2 (c10-c19)): 86.264% | percent suvival ([4]; ola 0.123 micro M, experiment block 3 (c20-c29)): 101.808% | percent suvival ([4]; ola 0.37 micro M, experiment block 1 (c0-c9)): 15.0785% | percent suvival ([4]; ola 0.37 micro M, experiment block 2 (c10-c19)): 58.3758% | percent suvival ([4]; ola 0.37 micro M, experiment block 3 (c20-c29)): 61.807% | percent suvival ([4]; ola 1.11 micro M, experiment block 1 (c0-c9)): 13.2577% | percent suvival ([4]; ola 1.11 micro M, experiment block 2 (c10-c19)): 54.2134% | percent suvival ([4]; ola 1.11 micro M, experiment block 3 (c20-c29)): 43.0496% | percent suvival ([5]; ola 1.875 nano M): 82.1918% and 93.3333% and 61.7978% | percent suvival ([5]; ola 30.00 nano M): 0% | percent suvival ([6]; ola 7.9 nano M): 85.0909% and 53.0303% and 63.9535% | percent suvival ([6]; ola 11.8 nano M): 61.0909% | percent suvival ([6]; ola 17.70 nano M): 49.2424% and 44.186% and 51.6364% | percent suvival ([6]; ola 26.60 nano M): 49.0909% | percent suvival ([6]; ola 40.00 nano M): 44.7273% and 28.7879% and 31.9767% | percent suvival ([6]; ola 60.00 nano M): 38.5455% | percent suvival ([6]; ola 90.00 nano M): 15.1515% and 16.8605% and 24.3636% | percent suvival [7]: 53.6122% and 69.9422% and 40.4494%

B1: LM3-EcoRI/LM4-EcoRI primer-template (dsDNA)
DNA 1: CGGCGAATTCGCAG
DNA 2: AGTAAGAGAACGCTGCGAATTCGCCG
binding result [8]: binds | binding result [9]: binds

B2: crystallization primer-template (dsDNA)
DNA 1: CGACGTCGCAGCGC
DNA 2: GCGAGACTCCGCGCTGCGACGTCG
binding result [10]: binds
